Data taken from PMC10827914 (Cellular and Molecular Life Sciences: CMLS, 2024).

Test system: CD13 expressed in HL-60 cells
Test: Inhibition of cell-associated CD13 enzymatic activity, HL-60 cells
Format: cell-based, human
Settings: 3 × 10^5 cells/well, L-alanine p-nitroanilide, 30 min, 37 °C, absorbance 405 nm
Protocol: Fig. 5 Quantification of CD13 expressed by HL-60 and HUVEC by western blotting and FACS analyses, and determination of their enzymatic activity. A Western blotting (WB) analysis of CD13 expression in HL-60 cells and HUVEC. For both cell lines, 2 µg of cell lysates were loaded in each well (n = 4–5 replicates, as indicated). After blotting, the membrane was cut and analyzed for CD13 and actin expression as described in Material and methods. The results of one representative experiment, out of three independent experiments performed, are shown (bars, ratio of CD13/actin band intensity, mean ± SEM). Recombinant human CD13 (rCD13) (20 ng) was loaded as positive control. MW, molecular weight markers. B FACS analysis of CD13 expression in HUVEC and HL-60 cells. The cells were incubated with mAb WM15 (10 μg/mL) and stained with a FITC-labeled goat anti-mouse IgG (H + L) secondary antibody. Data were expressed as fluorescence intensity and normalized to the number of cells. The cumulative results of three independent experiments are shown (each performed in duplicate; mean ± SEM). C Enzyme activity assay of CD13 expressed in HUVEC and HL-60 cells. […] Absorbance at 405 nm was measured using a plate reader. The enzyme units in each sample were calculated using rCD13 as a standard and were normalized to the number of cells. […] The absorbance was measured at 405 nm using a plate reader. […]

VGCARRYCS-TNF [G4-TNF, recombinant murine TNF fused to the C-terminus of G4]
Inhibition of CD13 enzymatic activity associated with HL-60 cells (in words): did not inhibit
